Like-named read-outs stand apart in the source and are kept apart here.
Experiments:
[1] = Dynamic light scattering (DLS) of mRNA/peptoid formulations: particle size and polydispersity; type: physicochemical; conditions: Fluc mRNA/peptoid formulation; for Size PDI: size polydispersity index by DLS, 5:1 mass ratio; for Size (nm): volume average particle size/diameter by DLS, 5:1 mass ratio peptoid:cargo
Procedure: (§1) To prepare nanoparticle formulations, the amino lipidated peptoid is mixed by pipetting with nucleic acid at a mass ratio between approximately 1:1 (peptoid:cargo) and 20:1. Prior to formulation, amino lipidated peptoid and nucleic acid cargo were diluted in ethanol and acidic buffer (PBS adjusted to pH 5.5 with 0.1 M HCl) respectively to a volume ratio of 1:3 and to target a final cargo concentration of approximately 0.05 mg/mL to 0.2 mg/mL. The exemplary amino lipidated cationic peptoids described in Example 2 were combined with firefly luciferase (Fluc) mRNA to form nanoparticle compositions to be evaluated for therapeutic and/or prophylactic purposes in vitro or in vivo. The formulations were prepared according to the protocol of Example 3 and mixed by simple pipetting. The mRNA/peptoid formulation at a 5:1 mass ratio of peptoid:cargo were evaluated by dynamic light scattering (DLS) in order to determine the volume average particle size/diameter (nm) of the mRNA/peptoid complex and the size polydispersity index (PDI) within the formulation. The percentage of mRNA encapsulation for each formulation of the exemplary compounds were determined by fluorescence of the Qubit RNA HS (Invitrogen) dye before and after lysis of particles by Triton X-100.

[2] = mRNA encapsulation by fluorescence of Qubit RNA HS dye before and after lysis with Triton X-100; type: physicochemical; conditions: percentage of mRNA encapsulation; Fluc mRNA/peptoid formulation, 5:1 mass ratio
Procedure: as §1, with “The” for “To prepare nanoparticle formulations, the amino lipidated peptoid is mixed by pipetting with nucleic acid at a mass ratio between approximately 1:1 (peptoid:cargo) and 20:1. Prior to formulation, amino lipidated peptoid and nucleic acid cargo were diluted in ethanol and acidic buffer (PBS adjusted to pH 5.5 with 0.1 M HCl) respectively to a volume ratio of 1:3 and to target a final cargo concentration of approximately 0.05 mg/mL to 0.2 mg/mL. The”

HeLa cells [3] = assay: In vitro expression of firefly luciferase (Fluc) after treatment with Fluc mRNA/amino lipidated peptoid formulations, no PEG or 2% DMG-PEG2000; type: cell-based
Procedure: The efficacy of mRNA/amino lipidated peptoid formulations was evaluated in vitro based on their ability to deliver the firefly luciferase (Fluc) reporter gene to cultured cells. Amino lipidated peptoids were combined with Fluc mRNA at a 5:1 w/w ratio, and the resulting particles were added to cultured HeLa cells at a dose of 100 ng/well (in 100 μL total volume). The resulting luciferase expression (RLU) was measured by a luminescence plate reader after 6 hours and 24 hours of treatment. […] In addition to evaluating nanoparticle complexes formed between mRNA cargos and amino lipidated peptoids alone, multicomponent formulations containing a small amount of PEG-lipid DMG-PEG2000 were also tested for in vitro Fluc mRNA delivery. In these formulations, DMG-PEG2000 was pre-mixed with candidate peptoid at an overall 2% incorporation (w/w), while maintaining the same 5:1 mass ratio of peptoid:mRNA used previously.

HeLa cells [4] = assay: In vitro Fluc expression with variable peptoid:mRNA mass ratio, 2% DMG-PEG2000; type: cell-based; conditions: 24 h; for Observed Luciferase Expression (RLU) for Given Formulation Mass Ratio 2:1: 2% (w/w) DMG-PEG2000, peptoid:mRNA 2:1; for Observed Luciferase Expression (RLU) for Given Formulation Mass Ratio 3.5:1: 2% (w/w) DMG-PEG2000, peptoid:mRNA 3.5:1; for Observed Luciferase Expression (RLU) for Given Formulation Mass Ratio 5:1: 2% (w/w) DMG-PEG2000, peptoid:mRNA 5:1; for Observed Luciferase Expression (RLU) for Given Formulation Mass Ratio 7.5:1: 2% (w/w) DMG-PEG2000, peptoid:mRNA 7.5:1
Procedure: The charge ratio dependence of amino lipidated peptoid delivery vehicles was evaluated by formulating particles between Fluc mRNA and delivery vehicles at varying mass ratios. Formulations were varied between 2:1 and 7.5:1 peptoid:mRNA (w/w) ratios (2:1, 3.5:1, 5:1 and 7.5:1). In addition, the role of DMG-PEG2000 was also explored with the mass ratios, either by excluding DMG-PEG2000 or incorporating DMG-PEG2000 at 2% (w/w) relative to amino lipidated peptoid. Fluc expression from these formulations was measured in HeLa cells following treatment for 24 hours. […] FIGS. 6B and 6C show plots of the average bioluminescence (RLU) for HeLa cells treated with the formulations of exemplary amino lipidated cationic peptoid compounds 1-36, all formulated with 2% w/w DMG-PEG2000.

[5] = MTT viability assay after treatment with Fluc mRNA/amino lipidated peptoid formulations; type: cell-based; conditions: human, HeLa cells
Procedure: Cellular viability was measured following treatment with Fluc mRNA/amino lipidated peptoid formulations by a traditional MTT viability assay. […] In this assay, cells were first treated with peptoid formulations at a final mRNA concentration of 100 ng/well for 8 hours. Cells were then left to grow for 48 hours, after which time they were exposed to 1.5 mg/mL 3-(4,5-dimethylthiazol-2-yl)-2,5-diphenyltetrazolium bromide (MTT) for 2 hours, then lysed using a solubilizing solution of 10% Triton-X 100 in acidic isopropanol (0.1N HCl). The signal corresponding to reduced formazan was normalized to untreated cells to provide a relative viability of each treated condition. […] In general, nearly all conditions maintained at least 80% viability with the only exceptions being formulations of compound 5, 34, and 35.

[6] = no PEG, peptoid:Fluc mRNA 5:1 w/w, 100 ng/well, 6 h of treatment
[7] = no PEG, peptoid:Fluc mRNA 5:1 w/w, 100 ng/well, 24 h of treatment
[8] = with 2% (w/w) DMG-PEG2000, peptoid:mRNA 5:1, 6 h after treatment
[9] = with 2% (w/w) DMG-PEG2000, peptoid:mRNA 5:1, 24 h after treatment

Row | Size PDI [1] | Size (nm) [1] | % Encapsulation [2] | SMILES | Luciferase Expression (RLU) 6 h (HeLa cells [3]; [6]) | Luciferase Expression (RLU) 24 h (HeLa cells [3]; [7]) | Luciferase Expression (RLU) 6 h (HeLa cells [3]; [8]) | Luciferase Expression (RLU) 24 h (HeLa cells [3]; [9]) | Observed Luciferase Expression (RLU) for Given Formulation Mass Ratio 2:1 (HeLa cells [4]) | Observed Luciferase Expression (RLU) for Given Formulation Mass Ratio 3.5:1 (HeLa cells [4]) | Observed Luciferase Expression (RLU) for Given Formulation Mass Ratio 5:1 (HeLa cells [4]) | Observed Luciferase Expression (RLU) for Given Formulation Mass Ratio 7.5:1 (HeLa cells [4]) | viability at 8 h, 500 ng/well ([5]; Relative Viability (%) 2% PEG) | viability at 8 h, 500 ng/well ([5]; Relative Viability (%) No PEG) | viability at 8 h, 500 ng/well ([5]; MTT, 2% (w/w) DMG-PEG2000, 5:1 mass ratio, 100 ng/well mRNA for 8 h then 48 h growth, normalized to untreated cells, read-out: Relative Viability (%) 2% PEG) | viability at 8 h, 500 ng/well ([5]; MTT, formulation alone (no PEG), 5:1 mass ratio, 100 ng/well mRNA for 8 h then 48 h growth, normalized to untreated cells, read-out: Relative Viability (%) No PEG)
1 | 0.038 | 354.9 nm | 87.8% | CCCCCCCCCCN(CC(N)=O)C(=O)CN(CCCCCCCCCC)C(=O)CN(CCc1ccccc1)C(=O)CN(CCc1ccccc1)C(=O)CN(CCN)C(=O)CN(CCc1ccccc1)C(=O)CN(CCc1ccccc1)C(=O)CN(CCN)C(=O)CN(CCc1ccccc1)C(=O)CN(CCc1ccccc1)C(=O)CN(CCN)C(=O)CN(CCc1ccccc1)C(=O)CN(CCc1ccccc1)C(=O)CNCCN [Compound 11] | 1.15E+03 RLU | 1.22E+03 RLU | 3.90E+02 RLU | 5.23E+02 RLU | 2.79E+04 RLU | 3.14E+04 RLU | 4.48E+04 RLU | 4.36E+03 RLU | 104% | 104% | – | –
2 | 0.122 | 367.9 nm | 73.9% | CCCCCCCCCCN(CC(N)=O)C(=O)CN(CCCCCCCCCC)C(=O)CN(CCc1ccccc1)C(=O)CN(CCc1ccccc1)C(=O)CNCCN [Compound 9] | 1.52E+02 RLU | 8.57E+01 RLU | 1.38E+02 RLU | 3.33E+01 RLU | 2.28E+02 RLU | 3.67E+02 RLU | 9.91E+02 RLU | 1.82E+02 RLU | 107% | 99.3% | – | –
3 | 0.191 | 326.7 nm | 99.0% | CCCCCCCCCCCCN(CC(N)=O)C(=O)CN(CCCCCCCCCCCC)C(=O)CN(CCc1ccc(OC)cc1)C(=O)CN(CCc1ccc(OC)cc1)C(=O)CN(CCN)C(=O)CN(CCc1ccc(OC)cc1)C(=O)CN(CCc1ccc(OC)cc1)C(=O)CN(CCN)C(=O)CN(CCc1ccc(OC)cc1)C(=O)CN(CCc1ccc(OC)cc1)C(=O)CNCCN [Compound 4] | 1.96E+02 RLU | 1.13E+02 RLU | 3.16E+02 RLU | 3.09E+02 RLU | 3.27E+03 RLU | 1.32E+03 RLU | 7.84E+03 RLU | 1.14E+03 RLU | 89.7% | 90.4% | – | –
4 | 0.455 | 282.8 nm | 8.4% | CCCCCCCCCCN(CC(N)=O)C(=O)CN(CCCCCCCCCC)C(=O)CN(CCc1ccccc1)C(=O)CN(CCc1ccccc1)C(=O)CN(CCCN)C(=O)CN(CCc1ccccc1)C(=O)CN(CCc1ccccc1)C(=O)CN(CCCN)C(=O)CN(CCc1ccccc1)C(=O)CN(CCc1ccccc1)C(=O)CNCCCN [Compound 30] | 2.79E+03 RLU | 1.29E+04 RLU | 1.79E+03 RLU | 1.52E+03 RLU | 4.27E+04 RLU | 3.43E+03 RLU | 3.46E+03 RLU | 1.47E+03 RLU | 88% | 86.5% | – | –

Further lines, the molecule ahead of its results:

Row | SMILES | Size PDI [1] | Size (nm) [1] | % Encapsulation [2] | Luciferase Expression (RLU) 6 h (HeLa cells [3]; [6]) | Luciferase Expression (RLU) 24 h (HeLa cells [3]; [7]) | Luciferase Expression (RLU) 6 h (HeLa cells [3]; [8]) | Luciferase Expression (RLU) 24 h (HeLa cells [3]; [9]) | Observed Luciferase Expression (RLU) for Given Formulation Mass Ratio 2:1 (HeLa cells [4]) | Observed Luciferase Expression (RLU) for Given Formulation Mass Ratio 3.5:1 (HeLa cells [4]) | Observed Luciferase Expression (RLU) for Given Formulation Mass Ratio 5:1 (HeLa cells [4]) | Observed Luciferase Expression (RLU) for Given Formulation Mass Ratio 7.5:1 (HeLa cells [4]) | viability at 8 h, 500 ng/well ([5]; Relative Viability (%) 2% PEG) | viability at 8 h, 500 ng/well ([5]; Relative Viability (%) No PEG) | viability at 8 h, 500 ng/well ([5]; MTT, 2% (w/w) DMG-PEG2000, 5:1 mass ratio, 100 ng/well mRNA for 8 h then 48 h growth, normalized to untreated cells, read-out: Relative Viability (%) 2% PEG) | viability at 8 h, 500 ng/well ([5]; MTT, formulation alone (no PEG), 5:1 mass ratio, 100 ng/well mRNA for 8 h then 48 h growth, normalized to untreated cells, read-out: Relative Viability (%) No PEG)
5 | CCCCCCCCCCN(CC(N)=O)C(=O)CN(CCCCCCCCCC)C(=O)CN(CCc1ccccc1)C(=O)CN(CCc1ccccc1)C(=O)CN(CC1CCNCC1)C(=O)CN(CCc1ccccc1)C(=O)CN(CCc1ccccc1)C(=O)CN(CC1CCNCC1)C(=O)CN(CCc1ccccc1)C(=O)CN(CCc1ccccc1)C(=O)CNCC1CCNCC1 [Compound 33] | 0.048 | 435.7 nm | 82.0% | 4.61E+03 RLU | 1.14E+04 RLU | 4.64E+02 RLU | 5.17E+02 RLU | 1.76E+04 RLU | 6.62E+02 RLU | 7.46E+02 RLU | 3.12E+02 RLU | 98% | 99.4% | – | –
6 | CCCCCCCCCCN(CC(N)=O)C(=O)CN(CCc1ccccc1)C(=O)CN(CCc1ccccc1)C(=O)CN(CCN)C(=O)CN(CCc1ccccc1)C(=O)CN(CCc1ccccc1)C(=O)CN(CCN)C(=O)CN(CCc1ccccc1)C(=O)CN(CCc1ccccc1)C(=O)CNCCN [Compound 6] | 0.348 | 448.6 nm | 92.4% | 4.30E+01 RLU | 3.60E+01 RLU | 1.38E+02 RLU | 2.13E+01 RLU | 8.18E+01 RLU | 8.18E+01 RLU | 6.97E+01 RLU | 4.56E+01 RLU | – | – | 88.9% | 88%
7 | CCCCCCCCCCN(CC(N)=O)C(=O)CN(CCCCCCCCCC)C(=O)CN(CCN)C(=O)CN(CCN)C(=O)CN(CCN)C(=O)CN(CCN)C(=O)CNCCN [Compound 15] | 1 | 1064 nm | 76.9% | 3.93E+01 RLU | 1.90E+01 RLU | 5.33E+00 RLU | 5.33E+00 RLU | 8.85E+01 RLU | 3.62E+01 RLU | 2.01E+01 RLU | 6.70E+00 RLU | 91.9% | 91.2% | – | –

— US20220323594A1, “LIPIDATED CATIONIC PEPTIDE-PEG COMPOSITIONS FOR NUCLEIC ACID DELIVERY” (NUTCRACKER THERAPEUTICS, INC., priority 2019, published 2022)
